Entries after “also recorded” stand apart in the source; their conditions may differ.
Assays:
[1] = tested on: pAkt/Akt; assay: Western blot for pAkt/Akt in cell lysates of treated 3T3L1 preadipocytes; type: cell-based; conditions: 24 hr incubation, vs DMSO
Experimental: FIG. 4 illustrates that the E4orf1 chemical analogs that increase glucose uptake also increase pAkt levels—the underlying mechanism for increasing cellular glucose uptake. 3T3L1 preadipocytes were treated with DMSO or insulin or with analogs BT324, BT325, BT327, or BT329. Post 24 hr incubation in the dark, cell lysates were collected and 20 μg of protein was loaded and probed for pAkt/Akt. Band intensities were analyzed using Image J software. Groups sharing same letters are not statistically significant.
(§1) 3T3L1 preadipocytes (passage number 8 below) were used to treat with analogs. As control, cells were treated with equal volumes of DMSO. As positive control, cells were treated with 100 nM insulin. Cells at 70% confluency were treated with analogs (2 μl/ml of media) in dark for 24 hr. Post 24 hr treatment, cells were used either to determine glucose uptake or to obtain cell lysates for determining pAKT abundance by Western blot analysis.

[2] = tested on: 3T3L1 preadipocytes; assay: Glucose uptake in 3T3L1 preadipocytes treated with E4orf1 analogs; type: cell-based; conditions: analogs 2 μl/ml of media, 24 hr in dark, vs DMSO, repeated 3 times
Experimental: FIG. 3 illustrates that selected E4orf1 chemical analogs increase glucose uptake. 3T3L1 preadipocytes were treated with dimethyl sulfoxide (DMSO) or insulin or treated with analogs BT324, BT325, BT326, BT327, BT328, and BT329. The treatments were compared using one way analysis of variance (ANOVA) and post hoc Tukey's test. Groups sharing same letters are not statistically significant.
as §1

[3] = tested on: C57BL/6J male mice on a 60% kcal high-fat diet; assay: Serum insulin by ELISA during GTT in high-fat diet fed mice; type: in vivo; conditions: daily injection of 4 mg/kg, vs DMSO control mice
Experimental: (§2) To determine improvement in glucose disposal in vivo, 10 wk old C57BL/6J male mice (Jax Laboratories) on a 60% kcal high-fat diet (Research diets, Inc.) since 6 weeks of age were divided into weight-matched groups. In individual experiments, mice were treated with daily injection of 4 mg/kg of respective small molecules (BN #3, BT #141, BT #143 and BT #181) or DMSO alone as control. Improvement in glycemic control was determined by glucose tolerance test (GTT) performed at baseline (prior to treatment), 7 days and/or 14 days post-treatment. Insulin-independent action of the small molecules was also measured by collecting blood during GTT and quantifying serum insulin by enzyme-linked immunosorbent assay (ELISA).

[4] = tested on: C57BL/6J male mice on a 60% kcal high-fat diet; assay: Glucose tolerance test (GTT) in high-fat diet fed mice; type: in vivo; conditions: daily injection of 4 mg/kg, GTT 7 and/or 14 days post-treatment, vs DMSO control mice
Experimental: as §2

[5] = tested on: 3T3-L1 pre-adipocytes, mature adipocytes and murine skeletal muscle cells; assay: In vitro screening of small molecules for cellular glucose uptake; type: cell-based; conditions: 20 μM/well, 24 h; for greater glucose uptake compared to control: other replications not presented; for increase in cellular glucose: tested 3 or more times in different cell types
Experimental: Next, over time, Applicants tested cellular glucose uptake with 41 different E4orf1 analog small molecules in 3T3-L1 pre-adipocytes, mature adipocytes and murine skeletal muscle cells. Cells were exposed to 20 μM/well of E4orf1 analogs. Glucose uptake by cells was determined 24 h later. Insulin and human adenovirus Ad36 were used as positive controls for glucose uptake. The * indicates statistical significance after Bonferroni correction for multiple comparisons.
Applicants conducted glucose uptake assays for compounds several separate times. BN #3 and BT #141 had about 70% greater glucose uptake compared to control in other replications not presented herein.

## C#Cc1ccc(/C(N)=N/O)cc1 [BT329]
[1]
  pAkt/Akt: significant increase in pAkt/Akt
[2]
  glucose uptake: significantly increased glucose uptake

## O=C(O)c1cc2cc(Cl)ccc2oc1=O [BT325]
[1]
  pAkt/Akt: significant increase in pAkt/Akt
[2]
  glucose uptake: significantly increased glucose uptake

## O=C(O)c1cc2cc(Cl)ccc2[nH]c1=O [BT327]
[1]
  pAkt/Akt: significant increase in pAkt/Akt
[2]
  glucose uptake: significantly increased glucose uptake

## Cc1cc(C(C#N)Nc2ccc(B3OC(C)(C)C(C)(C)O3)cc2)no1 (stereo not shown) [BN #3]
[3]
  insulin secretion: lower insulin secretion
[4]; 4 mg/kg
  glucose clearance / glycemic control (GTT): improved glycemic control; also recorded: improved glucose disposal
[5]
  greater glucose uptake compared to control: about 70%
  increase in cellular glucose: consistently significant increase in cellular glucose

## COC(=O)c1cc2cc(Cl)ccc2oc1=O [BT324]
[1]
  pAkt/Akt: significant increase in pAkt/Akt
[2]
  glucose uptake: significantly increased glucose uptake

## CC1(C)OB(c2ccc(C(C#N)Nc3ccc(O)cc3)cc2)OC1(C)C (stereo not shown) [BT #141]
[4]; 4 mg/kg
  glucose clearance / glycemic control (GTT): improved glycemic control
[4]; listed as BN #141, 4 mg/kg
  glucose clearance / glycemic control (GTT): improved glucose disposal
[5]
  greater glucose uptake compared to control: about 70%
  increase in cellular glucose: consistently significant increase in cellular glucose

From patent publication US20220071953A1, “Small Molecule Analogs Of The Protein E4ORF1 In The Treatment And Prevention Of Metabolic Disorders” (Texas Tech University System, priority 2019, published 2022)
